Columns and labels:
[1] = tested on: OC cell lines; assay: Cell migration assay (Boyden chamber); type: cell-based; details: different OC cell lines, P<0.05
Description: To determine whether proliferation inhibition was the dominant factor driving the reduction in OC viability seen with AzP treatment, we used propidium iodide and annexin-FITC stains with flow cytometry to measure the distribution of cell cycle phases after treatment. […] Furthermore, in the Boyden chamber assay for cell migration, SU093 inhibited cell migration by 40-46% (1 μM, P<0.05) in different OC cell lines.
Cell migration assay: 1×10^5 cells were plated in 60 mm cell culture dishes (Corning-Falcon, #353002) and incubated for 24 h. […] Cells were trypsinized and collected in a conical tube for each plate. Pellets of cells were resuspended, and live cells were counted using a hemocytometer and trypan blue staining. 40,000 live cells were then plated in the upper chamber of 8-micron transwell (Corning-Falcon, #353097) with 0.2% FBS media. The lower chamber contained 10% FBS complete media. […] Each transwell was washed, swiped for non-migrated cells and fixed using 75% ethanol. Fixed transwells were stained with 0.5% crystal violet for 1 h. De-stained transwell membranes were cut and mounted on a slide using DPX mounting media. Migrated cells were counted under the microscope at 100× magnification.
FIG. 1A) Lead optimization of SU093 to obtain SU056. […] FIG. 1G) Effects of SU093 and SU056 on apoptotic cell death analyzed by Annexin-FITC staining. […]

[2] = target: YB-1 (Homo sapiens, UniProt P67809); assay: Pulldown assay using biotinylated SU056; details: OVCAR8 cells and protein lysate
Chain of YB-1 (P67809 whole entry): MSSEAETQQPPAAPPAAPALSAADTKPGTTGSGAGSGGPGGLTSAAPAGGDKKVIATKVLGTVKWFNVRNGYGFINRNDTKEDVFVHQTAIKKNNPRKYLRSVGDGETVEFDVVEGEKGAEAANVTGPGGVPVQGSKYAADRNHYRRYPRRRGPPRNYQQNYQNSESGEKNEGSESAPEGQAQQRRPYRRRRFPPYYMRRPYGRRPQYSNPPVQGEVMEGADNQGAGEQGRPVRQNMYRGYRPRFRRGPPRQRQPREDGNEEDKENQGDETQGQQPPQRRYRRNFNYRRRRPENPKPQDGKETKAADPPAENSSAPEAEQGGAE
Description: Pulldown assay using biotinylated SU056: protein pulldown assay was performed using biotinylated SU056. […] Pulldown from cells: OVCAR8 cells were treated with 2.5 μM biotinylated SU056 for 1.5 h. Treated cells were collected and lysed using M-PER™ lysis solution (Thermo Scientific, #78503), supplemented with Halt protease and phosphatase inhibitor cocktail (Thermo Scientific, #78440). 300 μg protein was incubated with magnetic conjugate streptavidin bead (CST, #5947) at 4° C. on rocker overnight. […] Pulldown from cell lysates: OVCAR8 cells were collected and lysed using M-PER™ lysis solution (Thermo Scientific, #78503), supplemented with Halt protease and phosphatase inhibitor cocktail (Thermo Scientific, #78440). 1000 μg protein was incubated with 10 μM biotinylated SU056 at 4° C. on rocker overnight followed by overnight incubation with magnetic conjugate streptavidin bead (CST, #5947) at 4° C. After both the pulldown, biotin-streptavidin conjugates were pulldown and washed using magnetic rack. After three washing, beads were resuspended in 2×SDS sample buffer followed by heating at 90-100° C. for 5 min. Samples were resolved and probed with GBP1 (Abnova, #H00002633-PW1, 1:2000) and YB-1 (CST, #8475; 1:2000) as described above in immunoblotting. […]

[3] = Pharmacokinetics study; type: in vivo; details: injection of 20 mg/kg, intraperitoneal, mouse
Description: In a pharmacokinetics study in vivo, injection of 20 mg/kg SU056 led to a maximum serum concentration of 28.19 μg/mL with a T1/2 of ˜45 min. We then tested the synergism of paclitaxel and SU056 co-treatment in vivo in NOD-SCID mice implanted with OVCAR8 OC tumors as described above. Mice were given daily treatment of SU056 (10 mg/kg) and weekly treatment of paclitaxel (5 mg/kg) were administered intraperitoneally. […] This likely resulted from decreased paclitaxel efflux from OVCAR8 cells in the presence of SU056.
Pharmacokinetics study: SU056 Plasma concentration was determined by mass quantification analysis using an Agilent 6490 Funnel triple quadrupole (QQQ) mass spectrometer equipped with an Agilent 1290 infinity II UHPLC. An analytical C18 column, ZORBAX C18 (Eclipse Plus, 2.1×50 mm, 1.8 μm particle size) was used. The mobile phase was composed of 60% water buffered with 0.1% formic acid and 4 mM ammonium formate and 40% acetonitrile buffered with 0.1% formic acid. […] The precursor ion [M+H]+ and product ion for SU056 were monitored at m/z 370.0 and m/z 274.2, respectively. And the precursor ion [M+H]+ and product ion for IS were monitored at m/z 338.1 and m/z 260, respectively. […]
FIG. 10: Pharmacokinetics of SU056. […] After injection plasma was collected at respective time point and was analyzed using LC MS/MS as described in method.

In the case of `O=C1OCC2=C1C(c1cccc(F)c1)c1cc3c(cc1N2CCO)OCO3` (stereo not shown) [SU056, 9-(3-fluorophenyl)-5-(2-hydroxyethyl)-6,9-dihydro-[1,3]dioxolo[4,5-g]furo[3,4-b]quinolin-8(5H)-one], the inhibition at 1 µM [1] is reported as 78 to 87%, the “physical interaction with YB-1 (pulldown)” value [2] is reported as “physically interacts with YB-1” and the maximum serum concentration [3] is reported as 28.19 µg/mL. The half-life ([3]; plasma, ip) was roughly 45 min.

From patent publication US20240016784A1, “Y BOX BINDING PROTEIN 1 INHIBITORS” (Oregon Health & Science University, priority 2020, published 2024)
